The values below are quoted from earlier work in paper PMC8991498 (Food Chemistry: Molecular Sciences, 2021).

The data set deals with Caco-2 cell monolayers.

In the case of YQEPVLGPVRGPFPIIV [β-casein fragment], the “Absorption of β-casein fragment” value (ref Regazzo et al. (2010)) was “could be absorbed mainly by transcytosis”. As for YWDHNNPQIR [RAP], the “Passage of RAP through Caco-2 cell monolayers” value (ref Xu et al. (2017)) is “a percentage of this peptide managed to pass intact through the monolayer”.
